# Measured values as given in patent US20220323554A1, “POLYSACCHARIDE-PEPTIDE COMPLEX FOR LOWERING BLOOD SUGAR, BLOOD LIPID AND GLYCOSYLATED HEMOGLOBIN LEVELS, AND PREPARATION METHOD” (CHINA YUNHONG HOLDINGS CO., LTD., priority 2019, published 2022).
# Structures can show the parent of a compound that is named as a salt.
# How the values were obtained:
# diabetic animal model = experiment: Evaluation tests for lowering blood sugar (urine sugar, fasting blood sugar) in streptozotocin rats; format: in vivo; conditions: positive control group, metformin hydrochloride solution, intragastric once per day for 15 days
# Procedure: Evaluation tests for lowering blood sugar were described below.
# 100 of healthy male rats were selected, numbered and fed adaptively in normal environment for 2 weeks, and free to eat and drink.
# After adaptive feeding, the rats were randomly divided into 5 groups with 20 rats in each group. Only one group was selected as the blank control group, the rest groups were subjected to disposable intraperitoneal injection with 5% streptozotocin STZ solution for 200 mg/kg. If there were coma among those rats within 2 h, glucose sugar solution was fed until awake. Two days later, the fasting blood sugar was detected. The rat with a blood sugar of more than 10 was selected as a diabetic animal model.
# The rats that were successfully modeled were randomly divided into model group, positive control group, low-dose group, medium-dose group and high-dose group according to blood sugar and body weight, with 20 rats in each group. The polysaccharide-peptide composites prepared in Examples 1-3 were diluted with water into intragastric solutions, which were fed to the low-dose group for 1.0 g/kg, the medium-dose group for 2.0 g/kg and the high-dose group for 3.0 g/kg, respectively. […]
# During the experiment, rats of each group were […] every day for 15 consecutive days. […] At the end of the experiment, the final blood sugar content was recorded.
# diabetic rat model = experiment: Evaluation tests for lowering glycated hemoglobin (HbA1c) and blood lipid in diabetic rats (high-lipid emulsion + streptozotocin); format: in vivo, Sprague-Dawley (SD) rats; conditions: positive control group, metformin hydrochloride solution, intragastric once per day for 8 weeks
# Procedure: Evaluation tests for lowering glycated hemoglobin (HbA1c) were described below.
# Healthy male Sprague-Dawley (SD) rats with a body weight of 185-225 g were selected and fed adaptively for one week. After adaptive feeding, the SD rats were randomly divided into six groups each for 20 rats. One of the six groups was selected as a blank control group, and fed with ordinary feed. The rest five groups were subjected to intragastric administration with high-lipid emulsion for 10 mL/kg per day for 1 month. After the last feeding, rats were fasted for 12 h expect for water. The rats fed with high-lipid emulsion were subjected to disposable intraperitoneal injection with streptozotocin STZ solution for 25 mg/kg to establish a diabetic rat model. After streptozotocin injection for 72 h, the rats were fasted for 12 h expect for water and was taken blood samples from the tail to detect fasting blood sugar. The rat with a fasting blood glucose>10.0 mmol/L was considered as a successful model. The blank control group was intraperitoneally injected with citric acid-sodium citrate buffer solution.
# The rats that were successfully modeled were randomly divided into model group, positive control group, low-dose group, medium-dose group and high-dose group according to blood sugar and body weight, with 20 rats in each group. […]
# high-lipid model rats = experiment: Evaluation tests for lowering blood lipid (TC, TG) in rats given high lipid diet; format: in vivo; conditions: positive control group, simvastatin solution 50 mg/kg bw d, intragastric
# Description: Evaluation tests for lowering blood lipid were described below. 60 of healthy male rats were selected, numbered and fed adaptively in normal environment for 2 weeks, and free to eat and drink. After the adaptive feeding, the rats were randomly divided into 6 groups with 10 rats in each group, consisting of a blank control group, a high-lipid model group, a positive treatment group, a high-dose group, a medium-dose group and a low-dose group. Except the blank control group, the other groups were given high lipid diet. The polysaccharide-peptide composites prepared in this application and simvastatin were respectively diluted. The positive control group was given simvastatin solution by intragastric administration for 50 mg/kg bw d, and the high, medium and low-dose groups were given polysaccharide-peptide solutions for 100 mg/kg bw d, 50 mg/kg bw d and 25 mg/kg bw d, respectively. Other groups were intragastric with corresponding volume of distilled water. The treatment period lasted for 4 weeks.
Structure (SMILES),Content of urine sugar (diabetic animal model; model group 1.74 ± 0.56) [mmol/L],Content of fasting blood sugar (diabetic animal model; model group 14.86 ± 2.38) [mmol/L],Content of blood lipid (diabetic rat model; model group 3.29 ± 0.58) [mmol/L],Content of HbA1c (diabetic rat model; model group 50.78 ± 3.76) [ng/mL],Content of TG (high-lipid model rats; model group 0.57 ± 0.18) [mmol/L],Content of TC (high-lipid model rats; model group 3.41 ± 0.58) [mmol/L]
CN(C)C(=N)N=C(N)N [metformin hydrochloride],1.44 ± 0.23,8.55 ± 1.37,2.52 ± 0.24,35.14 ± 1.25,–,–
CCC(C)(C)C(=O)O[C@H]1C[C@@H](C)C=C2C=C[C@H](C)[C@H](CC[C@@H]3C[C@@H](O)CC(=O)O3)[C@H]21 [simvastatin],–,–,–,–,0.32 ± 0.14,2.59 ± 0.24
